# Measured values: patent US20250325531A1, “TREATMENT OF SYSTOLIC DYSFUNCTION” (MyoKardia, Inc., priority 2024, published 2025)
# Test: Food effect on pharmacokinetics, 200 mg as 25 mg tablets, fed vs fasted, healthy volunteers
# Assay type: in vivo, human
# Description: This example describes a clinical study for establishing, in healthy volunteers, the effect of a high fat, high caloric meal on the PK profile of Compound I, as compared to administration of the drug in the fasted state. The study also was intended to determine the safety and tolerability after a single oral dose of Compound I in the fed and fasted state in healthy volunteers. The measurements of PK, PD, and other clinical parameters were done as described in Example 1 above.
# This study was an open-label, randomized, two-period cross-over study in healthy volunteers aged 18-55 years. Subjects were screened up to 28 days before the first treatment period. Subjects were admitted to the clinical site on Day −1 (the day before dosing) of Period 1. Approximately half of the subjects randomly received a single dose of Compound I on Day 1 of the first treatment period after the ingestion of a high fat, high caloric breakfast, and the remainder were dosed in the fasted state. Any subject with a predose resting HR ≥95 beats per minute (bpm) was considered ineligible and was not treated. Any subjects with an acute gastrointestinal disorder which could impact drug/food absorption (e.g., vomiting, diarrhea) were rescheduled. Subjects were confined to the clinic until Day 4, and discharged after the 72-hour postdose PK and laboratory samples and vital signs were obtained. After a washout between dosing from 7 to 10 days (or, after consultation with the Investigator, up to 21 days after initial dosing if the subject was unable to attend within the 7 to 10-day window), the subject was admitted for Period 2. The sequence of fed/fasted versus fasted/fed periods was randomized. Subjects returned after the second treatment period for a safety follow-up visit on Day 7 (+1 day).
# In both treatment periods, Compound I was administered with 240 mL of water. In the fasted state, the subjects fasted for 10 hours before and for 4 hours after the administration of Compound I. Water could have been ingested up to 1 hour before and after 1 hour post dosing. In the fed state, the subjects fasted for 10 hours before and for 4 hours after the ingestion of the meal, but could have ingested water up to 1 hour before and 1 hour after dosing. In the fed state, the subjects started ingesting the high fat, high caloric meal within 30 minutes prior to Compound I administration and finished the meal within 30 minutes. The meal contained approximately 800 to 1000 calories with about 50% of the calories from fat. The meal consisted of approximately 150 calories from protein, 250 calories from carbohydrate, and 500-600 calories from fat. An example of the meal was a breakfast consisting of two eggs fried in butter, two strips of bacon, two slices of buttered toast, 4 ounces of hash brown potatoes, and 8 ounces of whole milk.
# Each subject received two oral doses of 200 mg of Compound I formulated as 25 mg tablets (8 tablets) in a randomized, cross-over fashion, once in the fasted state and the other time after the ingestion of a high fat, high caloric breakfast. There was a washout of between 7 and 21 days between the administrations of the two doses. The Compound I drug substance was a crystalline, free-base, synthetic molecule with a molecular weight of 435.4.
# Plasma drug concentrations were measured as described in Example 1 above. Blood samples to measure Compound I plasma concentration were collected at various time points, including on Day 1 predose (1 hour prior to dosing) and at 1 (±5 min), 2 (±5 min), 3 (±5 min), 4 (═10 min), 5 (±10 min), 6 (±10 min), 9 (±20 min), 12 (±20 min), 18 (±30 min), 24 (±30 min), 36 (±30 min), 48 (±30 min), and 72 (±30 min) hours postdose on both treatment periods.
# To assess the effect of food on the PK of Compound I, the two one-sided t-test procedure was used to construct 90% CI around the geometric mean ratios (fed/fasted) of plasma AUCinf, AUClast, and Cmax. […]
# [1] = 200 mg, subjects who completed both periods (N = 9)
# [2] = 200 mg, subjects who completed both fasted and fed periods (N = 9)
# [3] = single oral 200 mg, Fasted (N = 10)
# [4] = single oral 200 mg, Fed (N = 10)
compound,measurement,setting,value
"Cn1cc(S(=O)(=O)[C@@](C)(F)C2CCN(C(=O)Nc3ccon3)CC2)c(C(F)F)n1 [Compound I, (R)-4-(1-((3-(difluoromethyl)-1-methyl-1H-pyrazol-4-yl)sulfonyl)-1-fluoroethyl)-N-(isoxazol-3-yl) piperidine-1-carboxamide]",exposure (Cmax) higher in fed vs fasted state,200 mg,~60%
same,"AUClast, Fasted LSGM","200 mg, N = 11",57400 ng·h/mL
same,"Cmax, Fasted LSGM","200 mg, N = 11",2300 ng/mL
same,"Cmax, Fed LSGM","200 mg, N = 11",3640 ng/mL
same,"AUCinf, Geometric Mean Ratio - Fed/Fasted","200 mg, N = 11, 90% CI 130.30-182.67",154.28 % of Reference
same,"AUClast, Geometric Mean Ratio - Fed/Fasted","200 mg, N = 11, 90% CI 131.11-180.92",154.02 % of Reference
same,"Cmax, Geometric Mean Ratio - Fed/Fasted","200 mg, N = 11, 90% CI 137.11-182.33",158.11 % of Reference
same,Median (range) Tmax,"200 mg, fed state",5.5 h
same,AUC0-t geometric mean ratio (fed/fasted),[1],153.20%
same,AUCinf geometric mean ratio (fed/fasted),[1],153.63%
same,Cmax geometric mean ratio (fed/fasted),[1],156.43%
same,"AUCinf, Geometric Mean Ratio - Fed/Fasted",[2],153.63 % of Reference
same,"AUClast, Fasted LSGM",[2],59000 ng·h/mL
same,"AUClast, Geometric Mean Ratio - Fed/Fasted",[2],153.20 % of Reference
same,"Cmax, Fasted LSGM",[2],2370 ng/mL
same,"Cmax, Fed LSGM",[2],3700 ng/mL
same,"Cmax, Geometric Mean Ratio - Fed/Fasted",[2],156.43 % of Reference
same,"MRT, Mean",[3],22.55 h
same,"MRT, Median",[3],23.86 h
same,"T1/2, z, Mean",[3],14.28 h
same,"AUCinf, Median",[4],93950 ng·h/mL
same,"AUClast, Geometric Mean",[4],88400 ng·h/mL
same,"AUClast, Median",[4],89310 ng·h/mL
same,Cmax Geometric Mean,[4],3644 ng/mL
same,"T1/2, z, Geometric Mean",[4],13.56 h
